Data: patent US20080242635A1, “Method for Lengthening the Seasonal Mobility Period of Fish” (priority 2005, published 2008)

Experiments:
fish = test: Lengthening the seasonal mobility period of fish by feed supplements; format: in vivo; details: for Lengthening of the seasonal mobility period of fish (in words): feed supplement
koi fish = test: Pond test: fish feed to lengthen the period of seasonal mobility of koi (Example 5); format: in vivo; details: relative index 1 to 5 (1 fully immobile, 5 fully mobile), 10 gram feed per day, additive per Table 1
Description: Four ponds of 40 cubic meters each, all contained 50 koi fish with an approximate total body weight of 50 kg were used to show effectiveness of the fish feed according to the invention. One pond served as a control were the fish were fed with control feed, the fish in the other ponds received a feed according to the invention as prepared in examples 2 to 4 above. The experiment started when the temperature of the water was about 2 degrees Celsius.
The fish in control pond were fed with 10 gram Cyprico White 3 mm floater feed per day, whereas the fish in the other pond were fed with 10 gram of the feeds as described in Example 2, 3 and 4 Table 1).
This effect increased gradually every day until after 5 days the fish were fully mobile, whereas the temperature of the water was still between 2 and 3 degrees Celsius. Mobility of the fish was scored on a relative index of 1 to 5 wherein 1 is fully immobile and 5 is fully mobile Table 2). The water in the control pond was at exactly the same temperature as that of the other ponds, however the fish in the control pond were completely immobile. […] The fish were healthy and fully mobile whereas the control group was almost fully immobile.
Fish in ponds 1, 2 and 3 were fed with fish feed according to the invention, fish in pond 4 received control feed. Further details are described in the examples.

Compound	Lengthening of the seasonal mobility period of fish (in words) (fish)	Daily intake, optimum of cost benefit (fish; in vivo)	Mobility (koi fish; day 1, water 2 degrees Celsius)	Mobility (koi fish; day 2, water 2 degrees Celsius)	Mobility (koi fish; day 3, water 3 degrees Celsius)	Mobility (koi fish; day 4, water 3 degrees Celsius)	Mobility (koi fish; day 5, water 3 degrees Celsius)	Mobility (koi fish; day 8, water 3 degrees Celsius)	Mobility (koi fish; day 12, water 3 degrees Celsius)	Mobility (koi fish; day 16, water 4 degrees Celsius)	Mobility (koi fish; day 20, water 5 degrees Celsius)	Mobility (koi fish; day 24, water 5 degrees Celsius)	Mobility (koi fish; day 28, water 6 degrees Celsius)
1,3 and 1,6 beta glucans	very useful	around 60 ug/kglw/day											
O=C(O)Cc1c[nH]c2ccccc12 [free IAA, indole-3-acetic acid]	Particularly good results		1	1	1	2	2	3	2	2	3	4	4
